Data as given in publication PMC9782539, “Synthesis, Characterization and Biological Evaluation of Benzothiazole–Isoquinoline Derivative” (Molecules, 2022).

Legend:
BuChE = BuChE (Homo sapiens, UniProt P06276); experiment: biochemical; format: biochemical
Description: (§1) Each concentration was tested three times in parallel, and 96 empty plates were taken, and 20 µL of the test sample or positive drug (10% DMSO was added to the blank control), 40 µL of AChE or BuChE (0.2 U/mL) and 100 µL of DTNB (0.001 mol/L) were added in turn, mixed well and incubated in a constant temperature water bath at 37 °C for 15 min.

AChE = AChE (Homo sapiens, UniProt P22303); experiment: biochemical; format: biochemical
Description: as §1

MAO = MAO inhibitory activity (Holts method, rat liver mitochondrial enzyme); format: biochemical
Description: (§2) Male SD rats were sacrificed by decapitation, operated on ice, their livers were removed, and the liver surface was washed with precooled phosphate buffer. The liver was cut into pieces, and after washing (using PBS), 20 mL of 0.3 M sucrose buffer was added for homogenization. After fully homogenized, it was balanced by a tray balance. Low–temperature differential centrifugation was performed, and the obtained SD rat liver mitochondrial concentrate was the experimental monoamine oxidase stock solution, and was stored in a −80 °C refrigerator.
(§3) Added 25 µL of enzyme dilution solution and 25 µL of test derivatives (control group plus rasagiline, blank group plus 10% DMSO) to 96–well plate, incubated at 37 °C for 1 h, then 120 µL of substrate was added, 80 µL of chromogenic solution was added, incubated at 37 °C for 30 min, and its absorbance measured at 490 nm. In addition, in order to exclude the influence of protein, a protein control group was established, only the enzyme dilution was added, and the rest were replaced with PBS, and the absorbance value was detected at a wavelength of 490 nm. The inhibition rate of each concentration was substituted into the calculation software GraphPad Prism 8 to calculate the IC50 value.

MAO–A = target: T1, MAO–A (Rattus norvegicus, UniProt P21396); experiment: MAO–A inhibitory activity (enzyme pre-incubated with pargyline); format: biochemical
T1 construct: the obtained SD rat liver mitochondrial concentrate was the experimental monoamine oxidase stock solution; from tissue; host or cells: male SD rat liver mitochondria
T1 sequence (P21396 1-526): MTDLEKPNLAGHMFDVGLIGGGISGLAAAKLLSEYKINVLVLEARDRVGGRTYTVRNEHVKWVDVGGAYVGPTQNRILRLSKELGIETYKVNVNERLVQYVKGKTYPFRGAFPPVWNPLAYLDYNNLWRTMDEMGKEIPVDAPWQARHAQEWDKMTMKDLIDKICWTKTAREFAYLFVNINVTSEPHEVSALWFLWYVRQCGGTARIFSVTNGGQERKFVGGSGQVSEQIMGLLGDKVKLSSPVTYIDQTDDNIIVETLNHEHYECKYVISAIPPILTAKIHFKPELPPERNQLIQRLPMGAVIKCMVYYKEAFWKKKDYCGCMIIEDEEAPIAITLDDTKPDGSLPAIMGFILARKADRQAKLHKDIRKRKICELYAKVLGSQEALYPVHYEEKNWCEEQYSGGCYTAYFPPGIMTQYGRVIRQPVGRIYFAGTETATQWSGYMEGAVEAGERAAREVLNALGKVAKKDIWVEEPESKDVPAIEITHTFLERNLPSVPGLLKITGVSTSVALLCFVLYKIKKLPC
Description: as §2, §3
(§4) The inhibition rate of each concentration was substituted into the calculation software GraphPad Prism 8 to calculate the IC50 value.

MAO–B = target: T2, MAO–B (Rattus norvegicus, UniProt P19643); experiment: MAO–B inhibitory activity (enzyme pre-incubated with chlorgiline); format: biochemical
T2 construct: the obtained SD rat liver mitochondrial concentrate was the experimental monoamine oxidase stock solution; from tissue; host or cells: male SD rat liver mitochondria
T2 sequence (P19643 1-520): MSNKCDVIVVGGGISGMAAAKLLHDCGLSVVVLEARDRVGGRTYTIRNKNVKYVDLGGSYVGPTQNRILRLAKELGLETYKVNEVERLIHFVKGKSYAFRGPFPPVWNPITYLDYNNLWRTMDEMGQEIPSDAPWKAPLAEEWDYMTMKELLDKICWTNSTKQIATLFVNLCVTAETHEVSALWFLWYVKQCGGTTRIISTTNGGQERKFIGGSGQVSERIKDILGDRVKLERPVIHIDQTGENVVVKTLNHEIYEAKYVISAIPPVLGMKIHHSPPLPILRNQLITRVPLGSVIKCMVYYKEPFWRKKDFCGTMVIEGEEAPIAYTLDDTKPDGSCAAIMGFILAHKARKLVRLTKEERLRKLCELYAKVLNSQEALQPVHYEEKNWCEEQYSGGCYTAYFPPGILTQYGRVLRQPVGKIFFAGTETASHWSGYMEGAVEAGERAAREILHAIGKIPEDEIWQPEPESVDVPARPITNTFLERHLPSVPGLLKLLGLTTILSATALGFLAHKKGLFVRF
Description: as §2, §3, §4

ICR male mice = experiment: Forced swimming test (FST); format: in vivo; settings: i.p., 30 mg/kg; for Duration of Immobility: 30 min after administration, mean ± SEM (n = 8); for DID (%) percentage decrease in immobility duration: vs control
Description: Pharmacological experiments of antidepressant activity used FST in mice, fluoxetine hydrochloride was used as a positive control, and the vehicle solvent PFG–400 was used as a blank control. The experiment used ICR male mice (20 ± 2 g). Six benzothiazole–quinoline derivatives were dissolved in polyethylene glycol–400, and 30 min after administration (i.p., 30 mg/kg), the mice were each placed in a glass cylinder, recording the time of immobility. Duration of immobility outcomes is expressed as mean ± SEM. The t-test was used to make comparisons between groups.

Cytotoxicity, MTT method = format: cell-based; settings: mouse, L929 cells, 0–100 μM, read-out: cell viability (MTT)
Description: L929 (Shanghai Cell Bank, Chinese Academy of Sciences) cells were cultured in 10% fetal bovine serum: penicillin–streptomycin solution: MEM mixed medium with serum–free medium (10:1:90), and subcultured in a 5% carbon dioxide cell incubator at 37 °C, and the medium changed every other day.
In this experiment, L929 cells in the logarithmic growth phase were selected, and the cell density was adjusted to 2 × 10^4 cells per well. The cells were seeded in 96–well plates, and the 96–well plates seeded with cells were cultured in a 37 °C 5% carbon dioxide cell incubator. After 24 h, different concentrations of the test compound medium (6.5, 12.5, 25, 50, 100 μM) were added, and the blank group was added with drug–free medium, shaken gently, and placed at 37 °C 5%. The cells were cultured in a carbon dioxide cell incubator for 24 h, and each concentration was replicated 6 times. After 24 h, 20 μL of […] MTT solution (prepared in PBS with pH = 7.6) was added in the dark, and cultured in the cell incubator for another 4 h. After 4 h, the 96–well plate was taken out and the original medium was discarded. Added 160 μL DMSO, put it on a shaker and mixed well for about 10 min, used a microplate reader to measure its absorbance at 490 nm, recorded the results and analyzed.

Chain of AChE (P22303 32-614): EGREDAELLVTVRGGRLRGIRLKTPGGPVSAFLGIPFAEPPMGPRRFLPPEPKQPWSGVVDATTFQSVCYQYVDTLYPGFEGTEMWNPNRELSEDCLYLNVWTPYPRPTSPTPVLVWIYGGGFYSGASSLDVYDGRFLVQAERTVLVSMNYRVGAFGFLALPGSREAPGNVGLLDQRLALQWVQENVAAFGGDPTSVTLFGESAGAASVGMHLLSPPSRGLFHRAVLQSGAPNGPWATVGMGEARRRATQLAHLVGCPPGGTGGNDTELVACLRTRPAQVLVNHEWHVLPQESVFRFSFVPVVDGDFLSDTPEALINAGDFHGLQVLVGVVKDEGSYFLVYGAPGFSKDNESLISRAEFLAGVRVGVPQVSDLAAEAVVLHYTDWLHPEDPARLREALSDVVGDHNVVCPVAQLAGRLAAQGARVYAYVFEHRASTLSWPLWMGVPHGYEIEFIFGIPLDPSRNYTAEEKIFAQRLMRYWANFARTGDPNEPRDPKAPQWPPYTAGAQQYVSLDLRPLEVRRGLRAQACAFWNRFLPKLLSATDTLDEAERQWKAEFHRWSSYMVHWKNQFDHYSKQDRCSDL
Chain of BuChE (P06276 29-602): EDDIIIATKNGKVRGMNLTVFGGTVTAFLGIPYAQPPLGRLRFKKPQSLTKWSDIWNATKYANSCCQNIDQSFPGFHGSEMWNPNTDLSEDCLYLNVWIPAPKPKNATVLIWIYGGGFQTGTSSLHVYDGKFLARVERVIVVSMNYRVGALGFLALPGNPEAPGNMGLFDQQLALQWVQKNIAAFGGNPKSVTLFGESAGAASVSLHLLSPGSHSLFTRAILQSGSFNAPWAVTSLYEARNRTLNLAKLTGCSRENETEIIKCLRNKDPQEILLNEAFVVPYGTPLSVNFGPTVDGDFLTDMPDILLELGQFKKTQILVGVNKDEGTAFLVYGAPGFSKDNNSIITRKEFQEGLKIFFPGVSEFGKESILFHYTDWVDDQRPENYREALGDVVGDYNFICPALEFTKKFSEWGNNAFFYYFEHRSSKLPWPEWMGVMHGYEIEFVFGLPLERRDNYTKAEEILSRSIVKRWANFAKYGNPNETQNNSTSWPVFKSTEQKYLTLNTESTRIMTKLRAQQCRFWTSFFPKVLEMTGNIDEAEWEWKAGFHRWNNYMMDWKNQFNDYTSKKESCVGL

Compound	IC50 (BuChE) [µM]	Inhibition Rate (%) BuChE (BuChE) [%]	IC50 (AChE) [µM]	Inhibition Rate (%) AChE (AChE) [%]	IC50 (MAO) [µM]	Inhibition Rate of MAO (%) (MAO)	Inhibition Rate (%) MAO–A (MAO–A) [%]	IC50 (MAO–B) [µM]	Inhibition Rate (%) MAO–B (MAO–B) [%]	Duration of Immobility (ICR male mice) [s]	DID (%) percentage decrease in immobility duration (ICR male mice) [%]	viability at 24 h (Cytotoxicity, MTT method) [%]	DID (%) percentage decrease in immobility duration (ICR male mice; listed as fluoxetine) [%]
O=C(CN1CCc2ccccc2[C@H]1c1ccccc1)Nc1nc2cc(Br)ccc2s1 [Compound 4e, (R)–N–(5–bromobenzo[d]thiazol–2–yl)–2–(1–phenyl–3,4–dihydroisoquinolin–2(1H)–yl)acetamide]	18.3 ± 2.68	68.80	> 150	4.97	128.1 ± 1.27	9.29							
O=C(CN1CCc2ccccc2[C@H]1c1ccccc1)Nc1nc2c(Cl)cccc2s1 [Compound 4a, (R)–N–(4–chlorobenzo[d]thiazol–2–yl)–2–(1–phenyl–3,4–dihydroisoquinolin–2(1H)–yl)acetamide]	> 150	38.08	> 150	6.08	> 150	14.93							
O=C(CN1CCc2ccccc2[C@H]1c1ccccc1)Nc1nc2ccc(Cl)cc2s1 [Compound 4c, (R)–N–(6–chlorobenzo[d]thiazol–2–yl)–2–(1–phenyl–3,4–dihydroisoquinolin–2(1H)–yl)acetamide]	> 150	68.80	> 150	1.10	45.9 ± 2.66	21.59	12.03	9.13 ± 4.17	48.45	77.0 ± 18.3	56.84	> 90	
COc1ccc2nc(NC(=O)CN3CCc4ccccc4[C@H]3c3ccccc3)sc2c1 [Compound 4l, (R)–N–(6–methoxybenzo[d]thiazol–2–yl)–2–(1–phenyl–3,4–dihydroisoquinolin–2(1H)–yl)acetamide]	3.86 ± 0.82	41.92	> 150	3.31	76.3 ± 2.94	11.34							
O=C(CN1CCc2ccccc2[C@H]1c1ccccc1)Nc1nc2c(Cl)cc(Cl)cc2s1 [Compound 4o, (R)–N–(4,6–dichlorobenzo[d]thiazol–2–yl)–2–(1–phenyl–3,4–dihydroisoquinolin–2(1H)–yl)acetamide]	21.8 ± 2.85	52.16	> 150	3.87	67.8 ± 1.26	10.19							
C#CCN(C)Cc1ccccc1 [Pargyline, reference compound]									93.47				
COc1ccc2sc(NC(=O)CN3CCc4ccccc4[C@H]3c3ccccc3)nc2c1 [Compound 4k, (R)–N–(5–methoxybenzo[d]thiazol–2–yl)–2–(1–phenyl–3,4–dihydroisoquinolin–2(1H)–yl)acetamide]	10.2 ± 2.91	57.92	> 150	3.31	65.5 ± 3.51	17.75							
CNCCC(Oc1ccc(C(F)(F)F)cc1)c1ccccc1 (stereo not shown) [Fluoxetine, reference compound]										31.7 ± 7.7	82.20		82.2
O=C(CN1CCc2ccccc2[C@H]1c1ccccc1)Nc1nc2ccc([N+](=O)[O-])cc2s1 [Compound 4n, (R)–N–(6–nitrobenzo[d]thiazol–2–yl)–2–(1–phenyl–3,4–dihydroisoquinolin–2(1H)–yl)acetamide]	12.3 ± 3.76	20.31	> 150	2.76	> 150	12.51							
Cc1ccc2sc(NC(=O)CN3CCc4ccccc4[C@H]3c3ccccc3)nc2c1 [Compound 4h, (R)–N–(5–methylbenzo[d]thiazol–2–yl)–2–(1–phenyl–3,4–dihydroisoquinolin–2(1H)–yl)acetamide]	11.5 ± 3.22	37.44	> 150	3.31	76.4 ± 2.58	16.72							
COc1cccc2sc(NC(=O)CN3CCc4ccccc4[C@H]3c3ccccc3)nc12 [Compound 4j, (R)–N–(4–methoxybenzo[d]thiazol–2–yl)–2–(1–phenyl–3,4–dihydroisoquinolin–2(1H)–yl)acetamide]	> 150	51.52	> 150	12.71	> 150	5.70							
O=C(CN1CCc2ccccc2[C@H]1c1ccccc1)Nc1nc2ccc(F)cc2s1 [Compound 4m, (R)–N–(6–fluorobenzo[d]thiazol–2–yl)–2–(1–phenyl–3,4–dihydroisoquinolin–2(1H)–yl)acetamide]	50.3 ± 1.68	22.33	> 150	2.76	> 150	9.76							
O=C(CN1CCc2ccccc2[C@H]1c1ccccc1)Nc1nc2c(Br)cc(Br)cc2s1 [Compound 4p, (R)–N–(4,6–dibromobenzo[d]thiazol–2–yl)–2–(1–phenyl–3,4–dihydroisoquinolin–2(1H)–yl)acetamide]	27.1 ± 1.73	43.84	> 150	6.63	59.3 ± 3.22	19.80							
